{"source": "patent EP0710486A1", "about": "“REMEDY FOR URINATION DISORDER ACCOMPANYING PROSTATIC HYPERTROPHY” (YAMANOUCHI PHARMACEUTICAL CO. LTD., priority 1993, dated 1995)", "key": {"[1]": {"biological_target": "T1, bovine α1C-receptor subtype (Bos taurus, UniProt P18130)", "T1 construct": "pBCα1c which contains the entire coding region of bovine α1C receptor subtype; expressed in transfected cells; host or cells: COS-7 cells, transient expression, membrane preparation", "T1 sequence (P18130 1-466)": "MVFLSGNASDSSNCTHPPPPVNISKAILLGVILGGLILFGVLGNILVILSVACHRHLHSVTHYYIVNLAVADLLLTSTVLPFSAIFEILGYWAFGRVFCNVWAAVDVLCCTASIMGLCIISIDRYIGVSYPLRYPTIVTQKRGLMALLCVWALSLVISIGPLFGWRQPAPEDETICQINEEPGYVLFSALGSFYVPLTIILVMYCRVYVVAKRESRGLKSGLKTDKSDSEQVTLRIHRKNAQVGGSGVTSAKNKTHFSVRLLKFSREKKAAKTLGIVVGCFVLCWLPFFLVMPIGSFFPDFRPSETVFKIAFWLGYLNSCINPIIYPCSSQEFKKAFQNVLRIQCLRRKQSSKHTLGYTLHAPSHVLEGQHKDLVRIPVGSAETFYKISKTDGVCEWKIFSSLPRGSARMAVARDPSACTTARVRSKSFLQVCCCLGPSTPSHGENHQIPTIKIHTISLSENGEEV", "experiment": "Competitive binding experiment against [³H] prazosin, transfected COS-7 cell membranes"}, "[2]": {"conditions": "human clinical tests (K. Kawabe et al., J. Urol., 1990); cited from earlier work"}, "[3]": {"biological_target": "T2, rat α1B-receptor subtype (Rattus norvegicus, UniProt P15823)", "T2 sequence (P15823 1-515)": "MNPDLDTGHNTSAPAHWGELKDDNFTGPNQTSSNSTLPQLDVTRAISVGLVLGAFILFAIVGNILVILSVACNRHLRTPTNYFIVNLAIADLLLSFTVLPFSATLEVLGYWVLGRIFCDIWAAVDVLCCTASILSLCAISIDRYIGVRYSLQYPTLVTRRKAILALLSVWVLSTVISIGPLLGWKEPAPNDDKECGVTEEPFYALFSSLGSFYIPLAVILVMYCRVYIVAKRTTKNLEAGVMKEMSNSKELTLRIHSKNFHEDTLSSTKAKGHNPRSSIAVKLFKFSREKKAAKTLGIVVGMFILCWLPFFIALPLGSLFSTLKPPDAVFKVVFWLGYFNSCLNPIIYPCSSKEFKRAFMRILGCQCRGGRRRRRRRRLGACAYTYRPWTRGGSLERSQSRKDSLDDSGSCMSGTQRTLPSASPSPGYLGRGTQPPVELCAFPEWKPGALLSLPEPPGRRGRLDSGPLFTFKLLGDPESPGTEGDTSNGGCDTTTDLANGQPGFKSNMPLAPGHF", "experiment": "Competitive binding experiment against [³H] prazosin, transfected COS-7 cell membranes", "design": "pcDV1Rα1B which contains a 2573 bp fragment containing the entire coding region of α1B receptor subtype cDNA; expressed in transfected cells; host or cells: COS-7 cells, transient expression, membrane preparation", "protocol": "(§1) After 4 days of the transfection, these cells were again suspended in an ice-cold buffer for binding experiment (50 mmol/l Tris, 0.5 mmol/l EDTA, pH 7.5) and homogenized using Tissumeizer for 10 seconds at a maximum speed and then twice for 20 seconds at 2/3 speed. The thus obtained homogenate was centrifuged at 50,000 g for 20 minutes, and the resulting pellet was again suspended in the buffer for binding experiment to a concentration of 0.5 to 2 mg/ml.\n(§2) This incubation was terminated by quick filtration under a reduced pressure using Whatman GF/C filter paper. Non-specific binding was defined as binding in the presence of 10 µmol/l of phentolamine. […] The protein content was determined in accordance with the Bradford method using bovine IgG as an standard. In the competitive binding experiment, each compound was evaluated by 3 to 4 tests using at least two separate batches of transfected cells.\n(§3) The result was shown as the average value ± SEM of n times of tests."}, "[4]": {"biological_target": "T3, rat α1A/D-receptor subtype (Rattus norvegicus, UniProt P23944)", "T3 sequence (P23944 1-561)": "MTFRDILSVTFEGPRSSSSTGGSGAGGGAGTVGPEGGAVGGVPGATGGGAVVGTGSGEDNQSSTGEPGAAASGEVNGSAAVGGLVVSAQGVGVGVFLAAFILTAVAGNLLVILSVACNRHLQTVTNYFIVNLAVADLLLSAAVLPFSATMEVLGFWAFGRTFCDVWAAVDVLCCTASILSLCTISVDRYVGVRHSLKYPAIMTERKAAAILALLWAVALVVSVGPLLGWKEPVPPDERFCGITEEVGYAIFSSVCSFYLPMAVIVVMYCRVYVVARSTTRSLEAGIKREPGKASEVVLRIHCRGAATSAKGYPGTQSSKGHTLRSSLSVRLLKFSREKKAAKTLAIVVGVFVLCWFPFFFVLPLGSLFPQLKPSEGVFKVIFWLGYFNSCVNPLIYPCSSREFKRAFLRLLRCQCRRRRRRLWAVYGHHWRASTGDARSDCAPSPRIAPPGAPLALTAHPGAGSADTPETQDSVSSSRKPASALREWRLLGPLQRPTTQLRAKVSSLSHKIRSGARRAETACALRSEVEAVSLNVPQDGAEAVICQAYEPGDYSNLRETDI", "conditions": "average ± SEM, n=8", "protocol": "as §1, §2, §3"}, "[5]": {"biological_target": "T2, rat α1B-receptor subtype", "conditions": "average ± SEM, n=5", "protocol": "as §1, §2, §3"}, "[6]": {"conditions": "read-out: negative logarism values (-log values) of Ki values (converted)"}}, "note": "Read-outs that look alike come from different tables or passages of the source.", "data": [{"compound": "CCOc1ccccc1OCCN[C@H](C)Cc1ccc(OC)c(S(N)(=O)=O)c1", "note": "[Compound A, R(-)-5-[2-[[2-(o-ethoxyphenoxy)ethyl]amino]propyl]-2-methoxybenzenesulfonamide]", "values": [{"measurement": "Ki", "setting": "[1]", "value": 0.0229, "unit": "nM"}, {"measurement": "influence upon blood pressure", "setting": "[2]", "value": "without exerting influence upon blood pressure"}, {"measurement": "side effects", "setting": "[2]", "value": "hardly shows side effects"}, {"measurement": "treatment of urinary outlet obstruction associated with benign prostatic hyperplasia", "setting": "[2]", "value": "useful in treating urinary outlet obstruction associated with benign prostatic hyperplasia"}, {"measurement": "Ki", "setting": "[3]; [6]", "value": 0.871, "unit": "nM"}]}, {"compound": "CCOc1ccccc1OCCN[C@@H](C)Cc1ccc(OC)c(S(N)(=O)=O)c1", "note": "[Compound B, S(+)-5-[2-[[2-(o-ethoxyphenoxy)ethyl]amino]propyl]-2-methoxybenzenesulfonamide]", "values": [{"measurement": "Ki", "setting": "[1]; [6]", "value": 0.347, "unit": "nM"}, {"measurement": "Ki", "setting": "[3]", "value": 105, "unit": "nM"}]}, {"compound": "[³H] prazosin", "values": [{"measurement": "BMAX", "setting": "[4]", "value": "240 ± 87", "unit": "fmol/mg protein"}, {"measurement": "BMAX", "setting": "[5]", "value": "1673 ± 1203", "unit": "fmol/mg protein"}]}]}
